Key:
[1] = Inhibition of SOAT1 in arterial homogenates isolated from 1% cholesterol fed New Zealand white rabbit assessed as reduction in cholesteryl oleate formation incubated for 5 mins in presence of [14C]-oleoyl-CoA and BSA complex by TLC method; format: tissue-based, Oryctolagus cuniculus
[2] = Inhibition of SOAT2 in New Zealand white rabbit intestinal microsomes assessed as reduction in cholesteryl oleate formation incubated for 5 mins in presence of [14C]-oleoyl-CoA and BSA complex by TLC method; set-up: species or system Oryctolagus cuniculus, Intestine
Oryctolagus cuniculus = organism: Oryctolagus cuniculus; assay: Selectivity ratio of IC50 for inhibition of SOAT2 in New Zealand white rabbit intestinal microsomes to IC50 for inhibition of SOAT1 in arterial homogenates isolated from 1% cholesterol fed New Zealand white rabbit
[3] = molecular target: T1, Sterol O-acyltransferase 1 (Mus musculus, UniProt Q61263); assay: Inhibition of ACAT1 in mouse J774 cells assessed as reduction in esterified cholesterol accumulation after 18 hrs in presence of 25-hydroxycholesterol; format: cell-based
T1 sequence (Q61263 whole entry): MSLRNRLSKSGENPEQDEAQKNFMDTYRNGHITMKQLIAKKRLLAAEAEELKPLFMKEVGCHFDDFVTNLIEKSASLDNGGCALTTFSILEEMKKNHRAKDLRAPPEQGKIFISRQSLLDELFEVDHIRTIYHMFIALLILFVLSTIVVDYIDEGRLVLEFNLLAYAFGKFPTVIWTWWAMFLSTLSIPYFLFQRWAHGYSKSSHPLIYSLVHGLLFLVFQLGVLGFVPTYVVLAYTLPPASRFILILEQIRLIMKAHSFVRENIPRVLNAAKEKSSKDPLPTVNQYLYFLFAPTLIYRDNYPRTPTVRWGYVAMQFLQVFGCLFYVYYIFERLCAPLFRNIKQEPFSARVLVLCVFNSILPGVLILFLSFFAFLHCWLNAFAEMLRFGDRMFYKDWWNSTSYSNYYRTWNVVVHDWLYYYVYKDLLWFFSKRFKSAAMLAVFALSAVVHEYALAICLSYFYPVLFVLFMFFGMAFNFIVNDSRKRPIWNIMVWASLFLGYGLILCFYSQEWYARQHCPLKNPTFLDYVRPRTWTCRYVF

IC50 [1] [nM]	IC50 [2] [nM]	IC50 [3] [nM]	Compound	Ratio IC50 (Oryctolagus cuniculus)
4	19	280	CC(C)c1cccc(C(C)C)c1NC(=O)CCSc1nc2ccccc2s1	4.8
390	430	5200	CC(C)c1cccc(C(C)C)c1NC(=O)CCCCSc1nc2ccccc2[nH]1	1.1
70	210		COC(=O)c1ccc2oc(SCCCCCC(=O)Nc3c(C(C)C)cccc3C(C)C)nc2c1	3
6	14	100	CC(C)c1cccc(C(C)C)c1NC(=O)CCCCCCCCCSc1nc2ccccc2o1	2.3
36		2800	CC(C)c1cccc(C(C)C)c1NC(=O)CCCSc1nc2ccccc2o1	
2100	5000	4400	CC(C)c1cccc(C(C)C)c1NC(=O)CCCCCSc1nc2ccc(C(=O)O)cc2o1	2.4
26	33	5200	CC(C)c1cccc(C(C)C)c1NC(=O)CCCCCSc1nc2ccccc2s1	1.3
29	110	500	COC(=O)c1ccc2nc(SCCCCCC(=O)Nc3c(C(C)C)cccc3C(C)C)oc2c1	3.8
5	11	570	CC(C)c1cccc(C(C)C)c1NC(=O)CCCCCCCCCSc1nc2ccccc2s1	2.2
3600	4500	11000	CC(C)c1cccc(C(C)C)c1NC(=O)CCCCCSc1nc2cc(C(=O)O)ccc2o1	1.3
56	110	2200	CC(C)c1cccc(C(C)C)c1NC(=O)CCCCCSc1nc2cccc(CO)c2o1	2
15			CC(C)c1cccc(C(C)C)c1NC(=O)CCSc1nc2ccccc2o1	
53	81	2300	CC(C)c1cccc(C(C)C)c1NC(=O)CCCCCSc1nc2ccc(O)cc2o1	1.5
10	65	1900	CC(C)c1cccc(C(C)C)c1NC(=O)CCCCCSc1nc2ccccc2o1	6.5
250	170	1800	CC(C)c1cccc(C(C)C)c1NC(=O)CCCCCSc1nc2cc(CN(C)C)ccc2o1	0.7
45	150	2800	CC(C)c1cccc(C(C)C)c1NC(=O)CCCCCSc1nc2cnccc2o1	3.3
4	18	43	CC(C)c1cccc(C(C)C)c1NC(=O)CCCCCCCCSc1nc2ccccc2s1	4.5
84	220	3600	CC(C)c1cccc(C(C)C)c1NC(=O)CCCCSc1nc2ccccc2o1	2.6
40	44	410	CC(C)c1cccc(C(C)C)c1NC(=O)CCCCCCCCCCCCCCSc1nc2ccccc2o1	1.1
130	370	2400	CC(C)c1cccc(C(C)C)c1NC(=O)CCCCCSc1nc2ccc(CN(C)C)cc2o1	2.8
300	800	3100	CC(C)c1cccc(C(C)C)c1NC(=O)CCCSc1nc2ccccc2[nH]1	2.7
96	130	5600	CC(C)c1cccc(C(C)C)c1NC(=O)CCCCCSc1nc2cccc(CN(C)C)c2o1	1.4
		11000	CC(C)c1cccc(C(C)C)c1NC(=O)CCCCCSc1nc2c(C(=O)O)cccc2o1	
2300	5800	180	CC(C)c1cccc(C(C)C)c1NC(=O)CSc1nc2ccccc2[nH]1	2.5

IC50 [1] [nM]	IC50 [2] [nM]	IC50 [3] [nM]	Compound	Ratio IC50 (Oryctolagus cuniculus)
24	36	3000	CC(C)c1cccc(C(C)C)c1NC(=O)CCCCCSc1nc2cccnc2o1	1.5
28	140	100	CC(C)c1cccc(C(C)C)c1NC(=O)CCCCCSc1nc2cc(C(F)(F)F)ccc2o1	5
240	240	8800	CC(C)c1cccc(C(C)C)c1NC(=O)CCCCCSc1nc2c(O)cccc2o1	1
76	180	7000	CC(C)c1cccc(C(C)C)c1NC(=O)CCCCCSc1nc2ccc(CO)cc2o1	2.4
28	100		CC(C)c1cccc(C(C)C)c1NC(=O)CCCSc1nc2ccccc2s1	3.6
4	22	40	CC(C)c1cccc(C(C)C)c1NC(=O)CCCCCCCSc1nc2ccccc2o1	5.5
62	130	57000	CC(C)c1cccc(C(C)C)c1NC(=O)CCCCSc1nc2ccccc2s1	2.1
7	28	410	CC(C)c1cccc(C(C)C)c1NC(=O)CCCCCCSc1nc2ccccc2s1	4
15	94	1100	CC(C)c1cccc(C(C)C)c1NC(=O)CCCCCSc1nc2ccc(N(C)C)cc2o1	6.3
7	36	59	CC(C)c1cccc(C(C)C)c1NC(=O)CCCCCCCSc1nc2ccccc2s1	5.1
43	250	500	CC(C)c1cccc(C(C)C)c1NC(=O)CCCCCSc1nc2cc(N(C)C)ccc2o1	5.8
31000			CSc1nc2ccccc2o1	
29	120	500	CC(C)c1cccc(C(C)C)c1NC(=O)CCCCCSc1nc2c(N(C)C)cccc2o1	4.1
42	320		CC(C)c1cccc(C(C)C)c1NC(=O)CCCCCSc1nc2c(CN(C)C)cccc2o1	7.6
18		30	CC(C)c1cccc(C(C)C)c1NC(=O)CCCCCCCSc1nc2ccccc2[nH]1	1.7
26000			CCCCSc1nc2ccccc2o1	
25	140		CC(C)c1cccc(C(C)C)c1NC(=O)CCCCCSc1nc2ncccc2o1	
170			CCCCCC(=O)Nc1c(C(C)C)cccc1C(C)C	
35	200		CC(C)c1cccc(C(C)C)c1NC(=O)CSc1nc2ccccc2o1	5.7
		11000	CC(C)c1cccc(C(C)C)c1NC(=O)CCCCCSc1nc2cccc(C(=O)O)c2o1	1
36	20	820	CCCCCCCN(CCCCCSc1nc(-c2ccccc2)c(-c2ccccc2)[nH]1)C(=O)Nc1ccc(F)cc1F [LECIMIBIDE]	
5	30		CC(C)c1cccc(C(C)C)c1NC(=O)CCCCCCSc1nc2ccccc2o1	6
8600			CC(=O)Nc1c(C(C)C)cccc1C(C)C	

Reference: ChEMBL document CHEMBL4229418, “Design, synthesis and pharmacology of aortic-selective acyl-CoA: Cholesterol O-acyltransferase (ACAT/SOAT) inhibitors” (Bioorg Med Chem, 2018)
